# Measurements as given in ChEMBL document CHEMBL5303573, “Mapping human microbiome drug metabolism by gut bacteria and their genes” (Nature, 2019).
# Assay: The drug is tested on Alistipes indistinctus strain: DSM22520 for biotransformation. The drug concentrations were measured before and after a 12-h incubation by liquid-chromatography-coupled mass spectrometry (LC–MS)
# Settings: 2 µM
row,SMILES,Bacterial Biotransformation
1,CSc1ccc2c(c1)C(N1CCN(C)CC1)Cc1ccccc1S2.O=C(O)/C=C\C(=O)O (centres undefined),Compound NOT metabolized
2,CC(=O)OCC(=O)[C@@]12N=C(C)O[C@@H]1C[C@H]1[C@@H]3CCC4=CC(=O)C=C[C@]4(C)[C@H]3[C@@H](O)C[C@@]12C [DEFLAZACORT],Compound metabolized

# Assay: The drug is tested on Bacteroides coprophilus strain: DSM18228 for biotransformation. The drug concentrations were measured before and after a 12-h incubation by liquid-chromatography-coupled mass spectrometry (LC–MS)
# Settings: 2 µM
row,SMILES,Bacterial Biotransformation
1,CSc1ccc2c(c1)C(N1CCN(C)CC1)Cc1ccccc1S2.O=C(O)/C=C\C(=O)O (centres undefined),Compound NOT metabolized
2,CC(=O)OCC(=O)[C@@]12N=C(C)O[C@@H]1C[C@H]1[C@@H]3CCC4=CC(=O)C=C[C@]4(C)[C@H]3[C@@H](O)C[C@@]12C [DEFLAZACORT],Compound metabolized

# Assay: The drug is tested on Bacteroides dorei strain: DSM17855 for biotransformation. The drug concentrations were measured before and after a 12-h incubation by liquid-chromatography-coupled mass spectrometry (LC–MS)
# Settings: phocaeicola dorei, 2 µM
row,SMILES,Bacterial Biotransformation
1,CSc1ccc2c(c1)C(N1CCN(C)CC1)Cc1ccccc1S2.O=C(O)/C=C\C(=O)O (centres undefined),Compound NOT metabolized
2,CC(=O)OCC(=O)[C@@]12N=C(C)O[C@@H]1C[C@H]1[C@@H]3CCC4=CC(=O)C=C[C@]4(C)[C@H]3[C@@H](O)C[C@@]12C [DEFLAZACORT],Compound metabolized

# Assay: The drug is tested on Bacteroides ovatus strain: ATCC8483 for biotransformation. The drug concentrations were measured before and after a 12-h incubation by liquid-chromatography-coupled mass spectrometry (LC–MS)
# Settings: 2 µM
row,SMILES,Bacterial Biotransformation
1,CSc1ccc2c(c1)C(N1CCN(C)CC1)Cc1ccccc1S2.O=C(O)/C=C\C(=O)O (centres undefined),Compound NOT metabolized
2,CC(=O)OCC(=O)[C@@]12N=C(C)O[C@@H]1C[C@H]1[C@@H]3CCC4=CC(=O)C=C[C@]4(C)[C@H]3[C@@H](O)C[C@@]12C [DEFLAZACORT],Compound metabolized

# Assay: The drug is tested on Bacteroides pectinophilus strain: ATCC43243 for biotransformation. The drug concentrations were measured before and after a 12-h incubation by liquid-chromatography-coupled mass spectrometry (LC–MS)
# Settings: 2 µM
row,SMILES,Bacterial Biotransformation
1,CSc1ccc2c(c1)C(N1CCN(C)CC1)Cc1ccccc1S2.O=C(O)/C=C\C(=O)O (centres undefined),Compound NOT metabolized
2,CC(=O)OCC(=O)[C@@]12N=C(C)O[C@@H]1C[C@H]1[C@@H]3CCC4=CC(=O)C=C[C@]4(C)[C@H]3[C@@H](O)C[C@@]12C [DEFLAZACORT],Compound metabolized

# Assay: The drug is tested on Bacteroides uniformis strain: ATCC8492 for biotransformation. The drug concentrations were measured before and after a 12-h incubation by liquid-chromatography-coupled mass spectrometry (LC–MS)
# Settings: 2 µM
row,SMILES,Bacterial Biotransformation
1,CSc1ccc2c(c1)C(N1CCN(C)CC1)Cc1ccccc1S2.O=C(O)/C=C\C(=O)O (centres undefined),Compound metabolized
2,CC(=O)OCC(=O)[C@@]12N=C(C)O[C@@H]1C[C@H]1[C@@H]3CCC4=CC(=O)C=C[C@]4(C)[C@H]3[C@@H](O)C[C@@]12C [DEFLAZACORT],Compound metabolized

# Assay: The drug is tested on Parabacteroides merdae strain: ATCC43184 for biotransformation. The drug concentrations were measured before and after a 12-h incubation by liquid-chromatography-coupled mass spectrometry (LC–MS)
# Settings: 2 µM
row,SMILES,Bacterial Biotransformation
1,CSc1ccc2c(c1)C(N1CCN(C)CC1)Cc1ccccc1S2.O=C(O)/C=C\C(=O)O (centres undefined),Compound NOT metabolized
2,CC(=O)OCC(=O)[C@@]12N=C(C)O[C@@H]1C[C@H]1[C@@H]3CCC4=CC(=O)C=C[C@]4(C)[C@H]3[C@@H](O)C[C@@]12C [DEFLAZACORT],Compound metabolized

# Assay: The drug is tested on Anaerococcus hydrogenalis strain: DSM7454 for biotransformation. The drug concentrations were measured before and after a 12-h incubation by liquid-chromatography-coupled mass spectrometry (LC–MS)
# Settings: 2 µM
row,SMILES,Bacterial Biotransformation
1,CC(=O)OCC(=O)[C@@]12N=C(C)O[C@@H]1C[C@H]1[C@@H]3CCC4=CC(=O)C=C[C@]4(C)[C@H]3[C@@H](O)C[C@@]12C [DEFLAZACORT],Compound metabolized

# Assay: The drug is tested on Anaerotruncus colihominis strain: DSM17241 for biotransformation. The drug concentrations were measured before and after a 12-h incubation by liquid-chromatography-coupled mass spectrometry (LC–MS)
# Settings: 2 µM
row,SMILES,Bacterial Biotransformation
1,CSc1ccc2c(c1)C(N1CCN(C)CC1)Cc1ccccc1S2.O=C(O)/C=C\C(=O)O (centres undefined),Compound metabolized
2,CC(=O)OCC(=O)[C@@]12N=C(C)O[C@@H]1C[C@H]1[C@@H]3CCC4=CC(=O)C=C[C@]4(C)[C@H]3[C@@H](O)C[C@@]12C [DEFLAZACORT],Compound metabolized

# Assay: The drug is tested on Clostridium ramosum strain: DSM1402 for biotransformation. The drug concentrations were measured before and after a 12-h incubation by liquid-chromatography-coupled mass spectrometry (LC–MS)
# Settings: thomasclavelia ramosa, 2 µM
row,SMILES,Bacterial Biotransformation
1,CSc1ccc2c(c1)C(N1CCN(C)CC1)Cc1ccccc1S2.O=C(O)/C=C\C(=O)O (centres undefined),Compound NOT metabolized
2,CC(=O)OCC(=O)[C@@]12N=C(C)O[C@@H]1C[C@H]1[C@@H]3CCC4=CC(=O)C=C[C@]4(C)[C@H]3[C@@H](O)C[C@@]12C [DEFLAZACORT],Compound metabolized

# Assay: The drug is tested on Enterococcus faecalis strain: V583 for biotransformation. The drug concentrations were measured before and after a 12-h incubation by liquid-chromatography-coupled mass spectrometry (LC–MS)
# Settings: 2 µM
row,SMILES,Bacterial Biotransformation
1,CSc1ccc2c(c1)C(N1CCN(C)CC1)Cc1ccccc1S2.O=C(O)/C=C\C(=O)O (centres undefined),Compound NOT metabolized
2,CC(=O)OCC(=O)[C@@]12N=C(C)O[C@@H]1C[C@H]1[C@@H]3CCC4=CC(=O)C=C[C@]4(C)[C@H]3[C@@H](O)C[C@@]12C [DEFLAZACORT],Compound metabolized

# Assay: The drug is tested on Eubacterium rectale strain: ATCC33656 for biotransformation. The drug concentrations were measured before and after a 12-h incubation by liquid-chromatography-coupled mass spectrometry (LC–MS)
# Settings: agathobacter rectalis, 2 µM
row,SMILES,Bacterial Biotransformation
1,CSc1ccc2c(c1)C(N1CCN(C)CC1)Cc1ccccc1S2.O=C(O)/C=C\C(=O)O (centres undefined),Compound NOT metabolized
2,CC(=O)OCC(=O)[C@@]12N=C(C)O[C@@H]1C[C@H]1[C@@H]3CCC4=CC(=O)C=C[C@]4(C)[C@H]3[C@@H](O)C[C@@]12C [DEFLAZACORT],Compound metabolized

# Assay: The drug is tested on Ruminococcus gnavus strain: ATCC29149 for biotransformation. The drug concentrations were measured before and after a 12-h incubation by liquid-chromatography-coupled mass spectrometry (LC–MS)
# Settings: mediterraneibacter gnavus, 2 µM
row,SMILES,Bacterial Biotransformation
1,CSc1ccc2c(c1)C(N1CCN(C)CC1)Cc1ccccc1S2.O=C(O)/C=C\C(=O)O (centres undefined),Compound NOT metabolized
2,CC(=O)OCC(=O)[C@@]12N=C(C)O[C@@H]1C[C@H]1[C@@H]3CCC4=CC(=O)C=C[C@]4(C)[C@H]3[C@@H](O)C[C@@]12C [DEFLAZACORT],Compound metabolized

# Assay: The drug is tested on Ruminococcus torques strain: ATCC27756 for biotransformation. The drug concentrations were measured before and after a 12-h incubation by liquid-chromatography-coupled mass spectrometry (LC–MS)
# Format: ADME
# Parameters: dose 2 uM, timepoint 0 vs 12 hours
# Settings: 2 µM
row,SMILES,Bacterial Biotransformation
1,CSc1ccc2c(c1)C(N1CCN(C)CC1)Cc1ccccc1S2.O=C(O)/C=C\C(=O)O (centres undefined),Compound NOT metabolized
2,CC(=O)OCC(=O)[C@@]12N=C(C)O[C@@H]1C[C@H]1[C@@H]3CCC4=CC(=O)C=C[C@]4(C)[C@H]3[C@@H](O)C[C@@]12C [DEFLAZACORT],Compound metabolized

# Assay: The drug is tested on Edwardsiella tarda strain: ATCC23685 for biotransformation. The drug concentrations were measured before and after a 12-h incubation by liquid-chromatography-coupled mass spectrometry (LC–MS)
# Settings: 2 µM
row,SMILES,Bacterial Biotransformation
1,CSc1ccc2c(c1)C(N1CCN(C)CC1)Cc1ccccc1S2.O=C(O)/C=C\C(=O)O (centres undefined),Compound NOT metabolized
2,CC(=O)OCC(=O)[C@@]12N=C(C)O[C@@H]1C[C@H]1[C@@H]3CCC4=CC(=O)C=C[C@]4(C)[C@H]3[C@@H](O)C[C@@]12C [DEFLAZACORT],Compound metabolized

# Assay: The drug is tested on Providencia stuartii strain: ATCC25827 for biotransformation. The drug concentrations were measured before and after a 12-h incubation by liquid-chromatography-coupled mass spectrometry (LC–MS)
# Settings: 2 µM
row,SMILES,Bacterial Biotransformation
1,CSc1ccc2c(c1)C(N1CCN(C)CC1)Cc1ccccc1S2.O=C(O)/C=C\C(=O)O (centres undefined),Compound NOT metabolized
2,CC(=O)OCC(=O)[C@@]12N=C(C)O[C@@H]1C[C@H]1[C@@H]3CCC4=CC(=O)C=C[C@]4(C)[C@H]3[C@@H](O)C[C@@]12C [DEFLAZACORT],Compound metabolized

# Settings: bifidobacterium adolescentis, 12 h, 2 µM
# Description: The drug is tested on Bifidobacterium adolescentis strain: ATCC 15703 for biotransformation. The drug concentrations were measured before and after a 12-h incubation by liquid-chromatography-coupled mass spectrometry (LC–MS)
row,SMILES,Bacterial Biotransformation
1,CSc1ccc2c(c1)C(N1CCN(C)CC1)Cc1ccccc1S2.O=C(O)/C=C\C(=O)O (centres undefined),Compound NOT metabolized
2,CC(=O)OCC(=O)[C@@]12N=C(C)O[C@@H]1C[C@H]1[C@@H]3CCC4=CC(=O)C=C[C@]4(C)[C@H]3[C@@H](O)C[C@@]12C [DEFLAZACORT],Compound metabolized

# Settings: bacteroides fragilis, 12 h, 2 µM
# Description: The drug is tested on Bacteroides fragilis strain: NCTC 9343 for biotransformation. The drug concentrations were measured before and after a 12-h incubation by liquid-chromatography-coupled mass spectrometry (LC–MS)
row,SMILES,Bacterial Biotransformation
1,CSc1ccc2c(c1)C(N1CCN(C)CC1)Cc1ccccc1S2.O=C(O)/C=C\C(=O)O (centres undefined),Compound NOT metabolized
2,CC(=O)OCC(=O)[C@@]12N=C(C)O[C@@H]1C[C@H]1[C@@H]3CCC4=CC(=O)C=C[C@]4(C)[C@H]3[C@@H](O)C[C@@]12C [DEFLAZACORT],Compound metabolized

# Settings: parabacteroides johnsonii, 12 h, 2 µM
# Description: The drug is tested on Parabacteroides johnsonii strain: DSM18315 for biotransformation. The drug concentrations were measured before and after a 12-h incubation by liquid-chromatography-coupled mass spectrometry (LC–MS)
row,SMILES,Bacterial Biotransformation
1,CSc1ccc2c(c1)C(N1CCN(C)CC1)Cc1ccccc1S2.O=C(O)/C=C\C(=O)O (centres undefined),Compound metabolized
2,CC(=O)OCC(=O)[C@@]12N=C(C)O[C@@H]1C[C@H]1[C@@H]3CCC4=CC(=O)C=C[C@]4(C)[C@H]3[C@@H](O)C[C@@]12C [DEFLAZACORT],Compound metabolized

# Settings: limosilactobacillus reuteri cf48-3a, 12 h, 2 µM
# Description: The drug is tested on Lactobacillus reuteri CF48-3A strain: BEI HM-102 for biotransformation. The drug concentrations were measured before and after a 12-h incubation by liquid-chromatography-coupled mass spectrometry (LC–MS)
row,SMILES,Bacterial Biotransformation
1,CSc1ccc2c(c1)C(N1CCN(C)CC1)Cc1ccccc1S2.O=C(O)/C=C\C(=O)O (centres undefined),Compound NOT metabolized
2,CC(=O)OCC(=O)[C@@]12N=C(C)O[C@@H]1C[C@H]1[C@@H]3CCC4=CC(=O)C=C[C@]4(C)[C@H]3[C@@H](O)C[C@@]12C [DEFLAZACORT],Compound metabolized
